Key:
EGFR L858R = target: T1, EGFR L858R (Homo sapiens, UniProt P00533, L858R); test: Biochemical EGFR inhibition assay (Caliper mobility shift), EGFR L858R; details: biochemical Caliper mobility shift assay, EGFR L858R enzyme; read-out: Enz EGFR L858R IC50
T1 construct: purchased SignalChem E10-122BG
Summary of the method: (§1)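 Recombinant EGFR mutant phosphorylates 2.5 μM 5-FAM peptide at 1.0 mM ATP or ATP Km, in 100 mM HEPES pH 7.5, 10 mM MgCl2, 1 mM DTT, 1% DMSO, 25 °C to 10–20% conversion, EDTA stop. Caliper mobility shift separation; apparent IC50 from percent activity versus log concentration.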

EGFR (d746-750) = target: T2, EGFR (d746-750) (Homo sapiens, UniProt P00533, DEL746-750); test: Biochemical EGFR inhibition assay (Caliper mobility shift), EGFR (d746-750); details: biochemical Caliper mobility shift assay, EGFR Exon 19-del enzyme; read-out: Enz EGFR Exon 19-del IC50
T2 construct: purchased SignalChem E10-122JG
T2 sequence (P00533 with tags, fused parts or gaps DEL746-750 limits assumed): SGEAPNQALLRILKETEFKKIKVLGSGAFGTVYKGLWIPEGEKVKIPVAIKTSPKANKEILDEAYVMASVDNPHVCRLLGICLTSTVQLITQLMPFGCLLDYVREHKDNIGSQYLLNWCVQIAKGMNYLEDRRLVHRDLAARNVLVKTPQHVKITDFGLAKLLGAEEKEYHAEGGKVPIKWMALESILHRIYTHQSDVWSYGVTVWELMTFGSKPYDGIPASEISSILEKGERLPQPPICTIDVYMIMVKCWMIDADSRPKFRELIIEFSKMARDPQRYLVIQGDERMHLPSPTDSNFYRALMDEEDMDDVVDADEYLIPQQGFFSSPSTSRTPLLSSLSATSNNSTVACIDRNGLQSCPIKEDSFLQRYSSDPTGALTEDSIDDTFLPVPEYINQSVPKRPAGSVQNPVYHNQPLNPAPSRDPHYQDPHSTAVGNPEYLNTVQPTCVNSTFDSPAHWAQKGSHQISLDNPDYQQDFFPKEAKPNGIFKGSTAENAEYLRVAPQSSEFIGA
Summary of the method: as §1

[1] = target: intracellular phosphorylation of EGFR (Tyr1068) in PC-9 cells (Homo sapiens, UniProt P00533, DEL746-750); test: PC-9 pEGFR AlphaLISA assay; format: cell-based; details: 4 hours incubation, read-out: Phos EGFR PC9 IC50
Sequence of intracellular phosphorylation of EGFR (Tyr1068) in PC-9 cells (P00533 with tags, fused parts or gaps DEL746-750): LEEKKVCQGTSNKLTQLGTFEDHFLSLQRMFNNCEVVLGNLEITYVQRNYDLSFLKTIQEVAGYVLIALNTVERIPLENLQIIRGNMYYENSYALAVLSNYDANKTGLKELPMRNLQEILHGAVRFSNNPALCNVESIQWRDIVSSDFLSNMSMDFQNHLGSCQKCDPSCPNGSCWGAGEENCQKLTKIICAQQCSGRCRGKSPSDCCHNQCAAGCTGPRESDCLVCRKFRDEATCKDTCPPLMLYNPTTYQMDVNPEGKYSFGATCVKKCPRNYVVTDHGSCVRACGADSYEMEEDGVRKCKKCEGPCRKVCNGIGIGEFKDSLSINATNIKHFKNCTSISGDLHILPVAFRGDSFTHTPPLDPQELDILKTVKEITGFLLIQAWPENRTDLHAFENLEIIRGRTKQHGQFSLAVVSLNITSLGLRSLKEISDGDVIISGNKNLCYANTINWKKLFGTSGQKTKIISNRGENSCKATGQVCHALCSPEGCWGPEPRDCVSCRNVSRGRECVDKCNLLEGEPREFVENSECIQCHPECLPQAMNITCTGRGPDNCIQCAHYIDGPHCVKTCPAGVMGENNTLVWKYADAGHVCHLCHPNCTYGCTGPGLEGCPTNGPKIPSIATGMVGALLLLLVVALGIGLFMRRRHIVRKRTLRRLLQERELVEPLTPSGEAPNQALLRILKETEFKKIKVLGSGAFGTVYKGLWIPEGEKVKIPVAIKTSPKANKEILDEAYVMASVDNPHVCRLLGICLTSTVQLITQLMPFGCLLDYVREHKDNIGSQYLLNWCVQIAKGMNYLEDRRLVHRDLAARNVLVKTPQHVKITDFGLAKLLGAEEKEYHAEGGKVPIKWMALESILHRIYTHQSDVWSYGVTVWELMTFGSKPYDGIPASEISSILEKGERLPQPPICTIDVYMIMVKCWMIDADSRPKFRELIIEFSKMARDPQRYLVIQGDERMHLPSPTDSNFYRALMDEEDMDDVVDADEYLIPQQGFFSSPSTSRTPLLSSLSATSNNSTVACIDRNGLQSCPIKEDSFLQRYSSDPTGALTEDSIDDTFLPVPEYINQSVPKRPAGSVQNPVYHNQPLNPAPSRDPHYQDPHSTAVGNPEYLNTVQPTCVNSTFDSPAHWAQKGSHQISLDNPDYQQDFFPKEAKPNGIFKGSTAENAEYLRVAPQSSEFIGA
Summary of the method: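 PC-9 cells (EGFR del746-750) in phenol-free DMEM/10% FBS, adhered overnight, then exposed to 10-point 4-fold compound dilutions for 4 h at 37 °C. Lysates assayed for pEGFR Tyr1068 by AlphaLISA SureFire Ultra; IC50 from percent pEGFR inhibition vs log concentration.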

T1 sequence (P00533 25-1210 L858R): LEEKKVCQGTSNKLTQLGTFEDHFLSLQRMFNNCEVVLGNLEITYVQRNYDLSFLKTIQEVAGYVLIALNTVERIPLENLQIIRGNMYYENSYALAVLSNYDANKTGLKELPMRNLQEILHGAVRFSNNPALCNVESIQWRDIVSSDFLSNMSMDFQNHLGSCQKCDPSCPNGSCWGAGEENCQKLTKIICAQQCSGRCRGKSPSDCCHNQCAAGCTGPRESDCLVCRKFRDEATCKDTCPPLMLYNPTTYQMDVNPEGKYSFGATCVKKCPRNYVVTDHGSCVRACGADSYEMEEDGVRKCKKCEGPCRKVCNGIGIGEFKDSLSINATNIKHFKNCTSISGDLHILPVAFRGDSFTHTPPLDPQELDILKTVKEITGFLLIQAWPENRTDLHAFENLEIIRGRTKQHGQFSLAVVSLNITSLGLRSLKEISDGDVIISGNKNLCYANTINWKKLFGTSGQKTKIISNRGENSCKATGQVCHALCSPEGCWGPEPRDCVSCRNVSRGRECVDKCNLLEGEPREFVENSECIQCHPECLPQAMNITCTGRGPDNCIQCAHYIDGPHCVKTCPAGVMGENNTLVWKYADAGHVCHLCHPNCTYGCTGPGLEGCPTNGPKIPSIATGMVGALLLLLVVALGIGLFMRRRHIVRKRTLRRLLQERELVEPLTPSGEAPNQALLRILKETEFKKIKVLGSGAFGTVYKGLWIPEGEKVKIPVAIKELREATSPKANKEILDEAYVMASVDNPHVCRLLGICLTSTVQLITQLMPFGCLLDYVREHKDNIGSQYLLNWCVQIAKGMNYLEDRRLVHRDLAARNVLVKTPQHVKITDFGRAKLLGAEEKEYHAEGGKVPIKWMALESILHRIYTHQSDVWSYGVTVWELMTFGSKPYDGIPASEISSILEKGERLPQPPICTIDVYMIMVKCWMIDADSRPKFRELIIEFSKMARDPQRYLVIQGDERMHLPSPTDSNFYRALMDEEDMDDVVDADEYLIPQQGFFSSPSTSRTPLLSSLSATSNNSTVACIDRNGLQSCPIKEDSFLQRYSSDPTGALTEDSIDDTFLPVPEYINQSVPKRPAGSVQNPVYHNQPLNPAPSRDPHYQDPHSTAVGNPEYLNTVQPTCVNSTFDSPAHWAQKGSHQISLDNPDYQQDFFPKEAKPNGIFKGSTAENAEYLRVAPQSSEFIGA

SMILES | IC50 (EGFR L858R) [nM] | IC50 (EGFR (d746-750)) [nM] | IC50 [1] [nM]
COc1nn(C)cc1-c1cc(OC2CCN(C)CC2(F)F)c2c(Nc3ccc4ncsc4c3)ncnc2c1 (stereo not drawn) [Example 1, N-(5-((3,3-difluoro-1-methylpiperidin-4-yl)oxy)-7-(3-methoxy-1-methyl-1H-pyrazol-4-yl)quinazolin-4-yl)benzo[d]thiazol-6-amine] | ≤ 10 | ≤ 10 | ≤ 10
CN1CCC(Oc2cc(-c3cnn(C)c3)cc3ncnc(Nc4ccc5ncsc5c4)c23)C(F)(F)C1 (stereo not drawn) [Example 2, N-(5-((3,3-difluoro-1-methylpiperidin-4-yl)oxy)-7-(1-methyl-1H-pyrazol-4-yl)quinazolin-4-yl)benzo[d]thiazol-6-amine] | ≤ 10 | ≤ 10 | ≤ 10
COc1cc(-c2cnn(C)c2)cc2ncnc(Nc3ccc4ncsc4c3F)c12 [Example 3, 7-fluoro-N-(5-methoxy-7-(1-methyl-1H-pyrazol-4-yl)quinazolin-4-yl)benzo[d]thiazol-6-amine] | ≤ 10 | ≤ 10 | 10.1 to 50
Cn1cc(-c2cc(O[C@H]3CC[C@H](O)CC3)c3c(Nc4ccc5ncsc5c4)ncnc3c2)cn1 [Example 5, (1r,4r)-4-((4-(benzo[d]thiazol-6-ylamino)-7-(1-methyl-1H-pyrazol-4-yl)quinazolin-5-yl)oxy)cyclohexan-1-ol] | ≤ 10 | ≤ 10 | ≤ 10
Cn1cc(-c2cc(O[C@H]3CC[C@@H](O)CC3)c3c(Nc4ccc5ncsc5c4)ncnc3c2)cn1 [Example 11, (1s,4s)-4-((4-(benzo[d]thiazol-6-ylamino)-7-(1-methyl-1H-pyrazol-4-yl)quinazolin-5-yl)oxy)cyclohexan-1-ol] | ≤ 10 | ≤ 10 | ≤ 10
COc1nn(C)cc1-c1cc(O[C@H]2CCCN(C)C2)c2c(Nc3ccc4ncsc4c3)ncnc2c1 [Example 12, (S)-N-(7-(3-methoxy-1-methyl-1H-pyrazol-4-yl)-5-((1-methylpiperidin-3-yl)oxy)quinazolin-4-yl)benzo[d]thiazol-6-amine] | ≤ 10 | ≤ 10 | ≤ 10
Cn1cc(-c2cc(OCC3COC3)c3c(Nc4ccc5ncsc5c4F)ncnc3c2)cn1 [Example 13, 7-fluoro-N-(7-(1-methyl-1H-pyrazol-4-yl)-5-(oxetan-3-ylmethoxy)quinazolin-4-yl)benzo[d]thiazol-6-amine] | ≤ 10 | ≤ 10 | ≤ 10
Cn1cc(-c2cc(OC3COCC3(F)F)c3c(Nc4ccc5ncsc5c4)ncnc3c2)cn1 (stereo not drawn) [Example 14, N-(5-((4,4-difluorotetrahydrofuran-3-yl)oxy)-7-(1-methyl-1H-pyrazol-4-yl)quinazolin-4-yl)benzo[d]thiazol-6-amine] | ≤ 10 | ≤ 10 | 10.1 to 50
Cn1cc(-c2cc(OC3CCOCC3)c3c(Nc4ccc5ncsc5c4)ncnc3c2)cn1 [Example 15, N-(7-(1-methyl-1H-pyrazol-4-yl)-5-((tetrahydro-2H-pyran-4-yl)oxy)quinazolin-4-yl)benzo[d]thiazol-6-amine] | ≤ 10 | ≤ 10 | ≤ 10
COc1nn(C)cc1-c1cc(OC2COC2)c2c(Nc3ccc4ncsc4c3)ncnc2c1 [Example 18, N-(7-(3-methoxy-1-methyl-1H-pyrazol-4-yl)-5-(oxetan-3-yloxy)quinazolin-4-yl)benzo[d]thiazol-6-amine] | ≤ 10 | ≤ 10 | ≤ 10

The next lines start with the values.

IC50 (EGFR L858R) [nM] | IC50 (EGFR (d746-750)) [nM] | IC50 [1] [nM] | SMILES
≤ 10 | ≤ 10 | ≤ 10 | COc1nn(C)cc1-c1cc(O[C@H]2COC[C@@H]2O)c2c(Nc3ccc4ncsc4c3)ncnc2c1 (single isomer, unassigned) [Example A48]
10.1 to 50 | ≤ 10 | 10.1 to 50 | COc1nn(C)cc1-c1cc(O[C@H]2COC[C@@H]2O)c2c(Nc3ccc4ncsc4c3)ncnc2c1 (single isomer, unassigned) [Example A49]
≤ 10 | ≤ 10 | ≤ 10 | Cn1cc(-c2cc(O[C@@H]3CC[C@@H]3O)c3c(Nc4ccc5ncsc5c4)ncnc3c2)cn1 (single isomer, unassigned) [Example A51]
≤ 10 | ≤ 10 | ≤ 10 | Cn1cc(-c2cc(O[C@@H]3CC[C@H]3O)c3c(Nc4ccc5ncsc5c4)ncnc3c2)cn1 (single isomer, unassigned) [Example A53]
≤ 10 | ≤ 10 | 10.1 to 50 | Cn1cc(-c2cc(O[C@@H]3CC[C@H]3O)c3c(Nc4ccc5ncsc5c4)ncnc3c2)cn1 (single isomer, unassigned) [Example A54]
≤ 10 | ≤ 10 | ≤ 10 | Cn1cc(-c2cc(O[C@H]3C[C@H](O)C3)c3c(Nc4ccc5ncsc5c4)ncnc3c2)cn1 [Example 19, trans-3-((4-(benzo[d]thiazol-6-ylamino)-7-(1-methyl-1H-pyrazol-4-yl)quinazolin-5-yl)oxy)cyclobutan-1-ol]
≤ 10 | ≤ 10 | ≤ 10 | Cn1cc(-c2cc(O[C@H]3C[C@@H](O)C3)c3c(Nc4ccc5ncsc5c4)ncnc3c2)cn1 [Example 20, cis-3-((4-(benzo[d]thiazol-6-ylamino)-7-(1-methyl-1H-pyrazol-4-yl)quinazolin-5-yl)oxy)cyclobutan-1-ol]
≤ 10 | ≤ 10 | ≤ 10 | CN(C)C1CCC(Oc2cc(-c3cnn(C)c3)cc3ncnc(Nc4ccc5ncsc5c4)c23)CC1 (stereo not drawn) [Example 21, N-(5-((4-(dimethylamino)cyclohexyl)oxy)-7-(1-methyl-1H-pyrazol-4-yl)quinazolin-4-yl)benzo[d]thiazol-6-amine]
≤ 10 | ≤ 10 | ≤ 10 | Cn1cc(-c2cc(O[C@H]3CC[C@@H](N(C)C)CC3)c3c(Nc4ccc5ncsc5c4)ncnc3c2)cn1 [Example 22, N-(5-(((1s,4s)-4-(dimethylamino)cyclohexyl)oxy)-7-(1-methyl-1H-pyrazol-4-yl)quinazolin-4-yl)benzo[d]thiazol-6-amine]
10.1 to 50 | 10.1 to 50 | 10.1 to 50 | CN1CC(Oc2cc(-c3cnn(C)c3)cc3ncnc(Nc4ccc5ncsc5c4)c23)C1 [Example 27, N-(7-(1-methyl-1H-pyrazol-4-yl)-5-((1-methylazetidin-3-yl)oxy)quinazolin-4-yl)benzo[d]thiazol-6-amine]
≤ 10 | ≤ 10 | 10.1 to 50 | Cn1cc(-c2cc(OCC3COC3)c3c(Nc4ccc5ncsc5c4)ncnc3c2)cn1 [Example 28, N-(7-(1-methyl-1H-pyrazol-4-yl)-5-(oxetan-3-ylmethoxy)quinazolin-4-yl)benzo[d]thiazol-6-amine]
≤ 10 | ≤ 10 | 10.1 to 50 | Cn1cc(-c2cc(OC(CO)CO)c3c(Nc4ccc5ncsc5c4)ncnc3c2)cn1 [Example 29, 2-((4-(benzo[d]thiazol-6-ylamino)-7-(1-methyl-1H-pyrazol-4-yl)quinazolin-5-yl)oxy)propane-1,3-diol]
≤ 10 | ≤ 10 | 10.1 to 50 | Cn1cc(-c2cc(OCCO)c3c(Nc4ccc5ncsc5c4)ncnc3c2)cn1 [Example 30, 2-((4-(benzo[d]thiazol-6-ylamino)-7-(1-methyl-1H-pyrazol-4-yl)quinazolin-5-yl)oxy)ethan-1-ol]
